# Assay: xn = mol fraction of the nth substance listed
# Conditions: 100 kPa
smiles,measurement,setting,value
CO + CC[n+]1ccn(CCOC)c1.O=S(=O)([N-]S(=O)(=O)C(F)(F)F)C(F)(F)F,viscosity,"288.15 K, x2 = 0",0.623 mPa·s
same,viscosity,"293.15 K, x2 = 0",0.58 mPa·s
same,viscosity,"298.15 K, x2 = 0",0.541 mPa·s
same,viscosity,"303.15 K, x2 = 0",0.505 mPa·s
CC[n+]1ccn(CCOC)c1.O=S(=O)([N-]S(=O)(=O)C(F)(F)F)C(F)(F)F + CO,viscosity,"288.15 K, x1 = 0.1",1.982 mPa·s
same,viscosity,"288.15 K, x1 = 0.1997",4.2 mPa·s
same,viscosity,"288.15 K, x1 = 0.3966",11.27 mPa·s
same,viscosity,"288.15 K, x1 = 0.6953",30.4 mPa·s
same,viscosity,"288.15 K, x1 = 0.9016",47.6 mPa·s
same,viscosity,"288.15 K, x1 = 1",54.62 mPa·s
same,viscosity,"293.15 K, x1 = 0.1",1.791 mPa·s
same,viscosity,"293.15 K, x1 = 0.1997",3.71 mPa·s
same,viscosity,"293.15 K, x1 = 0.2999",6.22 mPa·s
same,viscosity,"293.15 K, x1 = 0.3966",9.6 mPa·s
same,viscosity,"293.15 K, x1 = 0.5",13.37 mPa·s
same,viscosity,"293.15 K, x1 = 0.5984",18.95 mPa·s
same,viscosity,"293.15 K, x1 = 0.6953",25.01 mPa·s
same,viscosity,"293.15 K, x1 = 0.7934",30.37 mPa·s
same,viscosity,"293.15 K, x1 = 0.9016",38.28 mPa·s
same,viscosity,"298.15 K, x1 = 0.1997",3.297 mPa·s
same,viscosity,"298.15 K, x1 = 0.3966",8.27 mPa·s
same,viscosity,"298.15 K, x1 = 0.5",11.39 mPa·s
same,viscosity,"298.15 K, x1 = 0.5984",16.24 mPa·s
same,viscosity,"298.15 K, x1 = 0.6953",20.9 mPa·s
same,viscosity,"298.15 K, x1 = 0.7934",25.15 mPa·s
same,viscosity,"298.15 K, x1 = 0.9016",31.34 mPa·s
same,viscosity,"298.15 K, x1 = 1",35.49 mPa·s
same,viscosity,"303.15 K, x1 = 0.1",1.486 mPa·s
same,viscosity,"303.15 K, x1 = 0.1997",2.951 mPa·s
same,viscosity,"303.15 K, x1 = 0.3966",7.21 mPa·s
same,viscosity,"303.15 K, x1 = 0.5984",13.93 mPa·s
same,viscosity,"303.15 K, x1 = 0.6953",17.85 mPa·s
same,viscosity,"303.15 K, x1 = 0.7934",21.12 mPa·s
same,viscosity,"303.15 K, x1 = 0.9016",26.04 mPa·s
same,viscosity,"308.15 K, x1 = 0.1",1.362 mPa·s
same,viscosity,"308.15 K, x1 = 0.5",8.55 mPa·s
same,viscosity,"308.15 K, x1 = 0.6953",15.37 mPa·s
same,viscosity,"308.15 K, x1 = 0.9016",21.94 mPa·s
same,viscosity,"308.15 K, x1 = 1",24.58 mPa·s
same,viscosity,"313.15 K, x1 = 0.1",1.252 mPa·s
same,viscosity,"313.15 K, x1 = 0.1997",2.408 mPa·s
same,viscosity,"313.15 K, x1 = 0.2999",3.827 mPa·s
same,viscosity,"313.15 K, x1 = 0.3966",5.611 mPa·s
same,viscosity,"313.15 K, x1 = 0.5",7.51 mPa·s
same,viscosity,"313.15 K, x1 = 0.9016",18.75 mPa·s
same,viscosity,"313.15 K, x1 = 1",20.86 mPa·s
same,viscosity,"318.15 K, x1 = 0.1",1.155 mPa·s
same,viscosity,"318.15 K, x1 = 0.1997",2.193 mPa·s
same,viscosity,"318.15 K, x1 = 0.3966",5.009 mPa·s
same,viscosity,"318.15 K, x1 = 0.5",6.66 mPa·s
same,viscosity,"318.15 K, x1 = 0.5984",9.11 mPa·s
same,viscosity,"318.15 K, x1 = 0.6953",11.53 mPa·s
same,viscosity,"318.15 K, x1 = 0.7934",13.65 mPa·s
same,viscosity,"318.15 K, x1 = 0.9016",16.34 mPa·s
same,viscosity,"318.15 K, x1 = 1",18.03 mPa·s
